The record followed here is patent US12187739B2, “Diaryl macrocycle polymorph” (TURNING POINT THERAPEUTICS, INC., priority 2015, dated 2025).

For test [1], the system named is SET-2 cells (harboring endogenous JAK2 V618F point mutation). The test is described as follows: SET-2 cell proliferation assay (CellTiter-Glo). The test is classed as cell-based. As to conditions: Homo sapiens, SET-2 essential thrombocythemia cells, 72 hours incubation, read-out: SET2 cell proli. IC50.
Protocol: Essential thrombocythemia cell line SET-2 cells (harboring endogenous JAK2 V618F point mutation) or T cell lymphoma Karpas-299 cell line (harboring endogenous NPM-ALK fusion gene) were cultured in RPMI medium, supplemented with 10% fetal bovine serum and 100 U/mL of penicillin/streptomycin. 5000 cells were seeded in 384 well white plate for 24 hours before compounds treatment. Cell proliferation was measured using CellTiter-Glo luciferase-based ATP detection assay (Promega) following the manufactures's protocol after 72 hours incubation. IC50 determinations were performed using GraphPad Prism software (GraphPad, Inc., San Diego, CA).
Test [2] concerns Ba/F3-EML4-ALK wild type cell line. In words: EML4-ALK Ba/F3 stable cell line proliferation assay (CellTiter-Glo). In kind it is cell-based. As to conditions: Ba/F3 cells with EML4-ALK wild-type (variant 1), 48 hours incubation; read-out: EML4-ALK Ba/F3 cell proli. IC50. The method, then:
The EML4-ALK wild-type gene (variant 1) was synthesized at GenScript and cloned into pCDH-CMV-MCS-EF1-Puro plasmid (System Biosciences, Inc). Ba/F3-EML4-ALK wild type cell line was generated by infecting Ba/F3 cells with lentivirus containing EML4-ALK wide-type. Stable cell lines were selected by puromycin treatment, followed by IL-3 withdrawal. 5000 cells were seeded in 384 well white plate overnight before compound treatment.

Test [3] deals with KM 12 cells (harboring endogenous TPM3-TRKA fusion gene). The test is described as follows: cells. As to conditions: Homo sapiens, KM12, 72 h, read-out: KM 12 cell prolif. IC50 (nM). The procedure: Colorectal cell lines KM 12 (harboring endogenous TPM3-TRKA fusion gene) cells were cultured in DMEM medium, supplemented with 10% fetal bovine serum and 100 U/mL of penicillin/streptomycin. 5000 cells were seeded in 384 well white plate for 24 hours before compounds treatment. Cell proliferation was measured using CellTiter-Glo luciferase-based ATP detection assay (Promega) following the manufactures's protocol after 72 hours incubation. IC50 determinations were performed using GraphPad Prism software (GraphPad, Inc., San Diego, CA).
5000 cells were seeded in 384 well white plate for 24 hours before compounds treatment. Cell proliferation was measured using CellTiter-Glo luciferase-based ATP detection assay (Promega) following the manufactures's protocol after 72 hours incubation. IC50 determinations were performed using GraphPad Prism software (GraphPad, Inc., San Diego, CA).

Structures are written as SMILES.

Take `C[C@H]1CNC(=O)c2cnn3ccc(nc23)N[C@H](C)c2cc(F)ccc2O1` [Compound I, (7S,13R)-11-fluoro-7,13-dimethyl-6,7,13,14-tetrahydro-1,15-ethenopyrazolo[4,3-f][1,4,8,10]benzoxatriazacyclotridecin-4(5H)-one]: the IC50 in test [1] was 242 nM; in test [2], 21.1 nM; in test [3], 0.5 nM.
